biological target: Serine/threonine-protein kinase PLK1 (Homo sapiens) (UniProt P53350); experiment: PLK1 kinase inhibitor potency, dose response, biochemical, TR-FRET, IC50 (AID 785); settings: recombinant human Plk1, fluorescence polarization phosphopeptide binding, 3 h
Sequence (P53350 whole entry, looked up): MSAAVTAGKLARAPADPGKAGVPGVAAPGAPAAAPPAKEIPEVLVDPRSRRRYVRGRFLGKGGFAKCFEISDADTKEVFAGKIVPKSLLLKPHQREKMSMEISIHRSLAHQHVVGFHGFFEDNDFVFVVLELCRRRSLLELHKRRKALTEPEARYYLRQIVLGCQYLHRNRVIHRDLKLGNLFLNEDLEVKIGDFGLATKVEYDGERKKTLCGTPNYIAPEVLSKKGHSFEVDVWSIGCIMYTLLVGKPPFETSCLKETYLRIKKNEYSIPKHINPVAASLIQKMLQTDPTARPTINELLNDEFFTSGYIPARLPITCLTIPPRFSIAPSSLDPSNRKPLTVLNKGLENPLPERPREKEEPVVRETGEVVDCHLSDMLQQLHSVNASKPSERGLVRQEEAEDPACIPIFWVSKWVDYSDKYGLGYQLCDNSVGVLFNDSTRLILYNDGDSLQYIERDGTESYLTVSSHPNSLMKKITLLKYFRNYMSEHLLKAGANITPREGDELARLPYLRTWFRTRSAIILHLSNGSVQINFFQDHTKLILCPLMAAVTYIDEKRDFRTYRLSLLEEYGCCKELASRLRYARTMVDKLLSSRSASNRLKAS

Q: How did the IC50 turn out when `CCOc1c(Br)ccc2c1sc1nc[nH]c(=O)c12` was run?
A: 2.15 µM

Q: Which IC50 does the source give for `c1ccc2c(-c3ccncc3)c[nH]c2c1` here?
A: 4.12 µM

Q: Which IC50 does the source give for `Cc1ncc([N+](=O)[O-])n1CCOC(=O)Nc1ccc(Cl)c(Cl)c1` here?
A: 0.775 µM

Q: How did the IC50 turn out when `NNc1ncnc2c1cnn2-c1ccccc1` was run?
A: 4.18 µM

Q: `COc1ccccc1Nc1ncnc2nc[nH]c12` was tested. Which IC50 did it give?
A: 1.01 µM

Q: `CCOC(=O)c1sc2nc[nH]c(=O)c2c1C` was tested. Which IC50 did it give?
A: 3.09 µM

Q: For `Cc1c(C(=O)OC(C)C)sc2nc[nH]c(=O)c12`, which IC50 is on record?
A: 4.01 µM

Q: For `O=C(Nc1cccnc1)c1cnn2cccnc12`, which IC50 is on record?
A: 4.07 µM

Q: With `Nc1[nH]ncc1N=Nc1ccc(Cl)cc1` as the compound, how does the IC50 read?
A: 2.22 µM

Q: How did the IC50 turn out when `COc1ccc(N2Nc3n[nH]c(N)c3N2)cc1` was run?
A: 1.64 µM

Q: How did the IC50 turn out when `CC1CCN(c2ncnc3nc[nH]c23)CC1` was run?
A: 3.13 µM

Q: With `Cc1cccc(Nc2ncnc3nc[nH]c23)c1` as the compound, how does the IC50 read?
A: 2.23 µM

Q: `COC(=O)c1sc2nc[nH]c(=O)c2c1C` was tested. Which IC50 did it give?
A: 1.44 µM

Q: How did the IC50 turn out when `Cc1cc(C(C#N)c2cccc(Cl)c2)n2ncnc2n1` (centres undefined) was run?
A: 5.98 µM

Q: How did the IC50 turn out when `Cc1[nH]nc2c1C1(CCN(Cc3ccccc3)CC1)C(C#N)=C(N)O2` was run?
A: 1.4 µM

Q: For `Cc1cccc(N=Nc2c(N)n[nH]c2-c2ccc(Cl)cc2)c1`, which IC50 is on record?
A: 18.5 µM

Q: With `CCOc1ccc(N2Nc3n[nH]c(N)c3N2)cc1` as the compound, how does the IC50 read?
A: 3.4 µM

Q: Which IC50 does the source give for `N#Cc1c(-c2ccc3c(c2)OCO3)csc1N` here?
A: 10.7 µM

Q: For `O=c1[nH]cnc2sc(-c3ccccc3)cc12`, which IC50 is on record?
A: 6.08 µM

Q: With `Nc1[nH]ncc1C(=O)Nc1cccc(C(F)(F)F)c1` as the compound, how does the IC50 read?
A: 0.888 µM

Q: With `CCOC(=O)c1c(-c2ccncc2)csc1N` as the compound, how does the IC50 read?
A: 7.01 µM

Q: For `O=C(O)c1ccc2c(c1)[C@@H]1C=CC[C@@H]1[C@H](c1ccccn1)N2`, which IC50 is on record?
A: 16.9 µM

Q: `Cc1nc2c([nH]1)C1(CCN(Cc3ccccc3)CC1)C(C#N)=C(N)O2` was tested. Which IC50 did it give?
A: 0.823 µM

Q: How did the IC50 turn out when `O=C(CSc1n[nH]c(-c2ccc(Cl)cc2Cl)n1)Nc1ccccn1` was run?
A: 0.534 µM

Q: Which IC50 does the source give for `COc1cccc(Nc2ncnc3nc[nH]c23)c1` here?
A: 2.37 µM

Q: With `CCc1nc2n[nH]c(N)c2c2c1CSC(C)(C)C2` as the compound, how does the IC50 read?
A: 5.1 µM

Q: For `C=CCNc1nc(N)c(C(=O)c2ccc3c(c2)OCO3)s1`, which IC50 is on record?
A: 3.85 µM

Q: `Nc1nc2ccc([N+](=O)[O-])c(N)c2s1` was tested. Which IC50 did it give?
A: 0.235 µM

Q: How did the IC50 turn out when `NC(=O)c1ccc(C(F)(F)F)n(Cc2cccc(Cl)c2)c1=O` was run?
A: 22.8 µM

Q: Which IC50 does the source give for `COc1cc(/C=C(\C#N)c2[nH]nc(N)c2C#N)cc(OC)c1O` here?
A: 1.86 µM

Q: With `O=c1[nH]cnc2cc(-c3ccccc3)sc12` as the compound, how does the IC50 read?
A: 6.2 µM

Q: With `Nc1ncnc(Nc2cccc(C(F)(F)F)c2)n1` as the compound, how does the IC50 read?
A: 0.469 µM

Q: `Nc1ncnc(Nc2ccccc2C(F)(F)F)n1` was tested. Which IC50 did it give?
A: 4.84 µM

Q: For `O=c1[nH]cnc2scc(-c3cccs3)c12`, which IC50 is on record?
A: 4.24 µM

Q: With `COc1ccc(Cn2c(N)c(C(=O)NCc3ccco3)c3nc4ccccc4nc32)cc1OC` as the compound, how does the IC50 read?
A: 8.82 µM

Q: For `CC1Cc2nc(SCC(=O)Nc3nccs3)n(C)c(=O)c2S1` (centres undefined), which IC50 is on record?
A: 9.72 µM

Q: With `COC(=O)c1c(-c2ccc(Br)cc2)noc1N` as the compound, how does the IC50 read?
A: 7.93 µM

Q: `N#C/C(=N\Nc1c(Cl)cccc1Cl)C(=O)NN` was tested. Which IC50 did it give?
A: 0.814 µM

Q: For `Cc1oc2ncnc(N)c2c1C`, which IC50 is on record?
A: 3.75 µM

Source: PubChem BioAssay AID785 (University of Pittsburgh Molecular Library Screening Center, 2007)
